Source: US20050004136A1, “Novel amidoalkyl-piperidine and amidoalkyl-piperazine derivatives useful as neurokinin receptor modulators” (priority 2000, published 2005)

Tests used:
[1] = system: serotonin neural pathways; assay: DOI Headshake Model; type: in vivo; design: key: Active: A statistically significant decrease in the number of headshakes induced by the administration of DOI in the mice given the test compound relative to the mice given the control was an indication of modulation of the serotonin neural pathways and thus an indication of an active compound; conditions: DOI-induced headshakes, mice (NIH Swiss; starred compounds also CD-1); for Number of Headshakes, IP Admin: i.p., doses up to 100 mg/kg; for Number of Headshakes, Oral Admin.: doses up to 40 mg/kg
Experimental: Male CD-1 or NIH-Swiss mice were fasted overnight. The mice were given control vehicle or test compound by the oral or intraperitoneal (i.p.) routes of administration at doses up to 40 mg/kg orally and up to 100 mg/kg i.p. Administration time was denoted as t0. At each of several selected intervals after t0 (at about 45 min, 1 h, 2 h, 4 h, 6 h, 8 h, 24 h after administration), separate groups of mice were given 1-{2,5-dimethoxy-4-iodophenyl]-2-aminopropane (DOI), a known serotonin receptor type-2A agonist, by the intraperitoneal route of administration route. […] (Separate groups of mice were tested at each time interval.) Peak activity time, denoted as tp, was determined as the time of the greatest reduction in the number of DOI-induced headshakes for mice given the test compound compared to the number of headshakes for the mice given the control, measured at the same time interval.
A statistically significant decrease in the number of headshakes induced by the administration of DOI in the mice given the test compound relative to the mice given the control was an indication of modulation of the serotonin neural pathways and thus an indication of an active compound.
In vivo biological activity was measured for select compounds of the present invention as listed in Table 11, using the procedures outlined above. Starred (*) compounds were tested on both male CD-1 mice and NIH Swiss mice, all other compounds were tested using Swiss NIH mice.

[2] = system: Senktide-induced headshake; assay: Reversal of Senktide-induced head shake in mice; type: in vivo; design: key: Active = a statistically significant (Mann-Whitney t-test (one-tailed)) reduction in the headshakes produced by senktide (5 mg/kg), in animals dosed with test compound 10 mg/kg po; conditions: NIH-Swiss mice, test compound 10 mg/kg po, senktide 5 mg/kg sc 45 min later, 10 min count
Experimental: The in vivo assay measuring the reversal of Senktide-induced headshake in mice has been previously described in the literature by Sarau, H. M., et al in J. Pharmacol. Exp. Therapeutics (2000), 295 pp 373-381.
Briefly, overnight fasted NIH-Swiss mice weighing 18-21 gms were treated with test compound or vehicle by the oral (gavage) route, at various concentrations. Forty five (45) minutes after administration, the animals are injected subcutaneously (sc) with Senktide at a concentration of 5 mg/kg. Immediately after administration of the Senktide, the animals are randomized and laced into isolated observation chambers and the number of headshakes per recorded over a ten (10) minute period. A decrease in the number of Senktide induced headshakes for test compound treated animals as compared with vehicle treated animals (analysis completed using Mann-Whitney t-test (one tailed)) was taken as an indication of anxiolytic activity for the compound.
Representative compounds of the instant invention were tested for reversal of Senktide-induced headshakes in mice, with results as listed in Table 12.

cisplatin induced emesis = assay: Anti-emetic test, cisplatin induced emesis; type: in vivo, shrew; conditions: shrews, 20 mg/kg, administered subcutaneously; statistically significant reduction
Experimental: The effectiveness of a test compound to inhibit emesis in the shrew were determined according to the procedure described in Darmani, N. A. Serotonin 5-HT3 receptor antagonists prevent cisplatin-induced emesis in Cryptosis parva: a new experimental model of emesis. J Neural. Transm. 1998, 105, 1143-1154.

rats [3] = assay: Spontaneous Locomotor Activity (SMA) Test; type: in vivo; design: key: Increase = statistically significant (Mann Whitney U test p < 0.05) increase in horizontal activity and vertical movements indicating lack of sedation or motor impairment at 10 mg/kg po; conditions: Long-Evans Hooded rats, 10 mg/kg po, 50 minutes after administration; decrease = sedation
Experimental: (§1) Male Long-Evans Hooded rats weighing 180 to 200 grams were purchased from Charles River Inc (Portage MI). The rats were housed in groups of four at an ambient temperature of 21 to 23° C. in a room with an automated 12/12 hour light/dark cycle. The rats had access to water and a commercial rodent food ad libitum. At the time of the experiment the rats weighed 220 to 350 grams.
(§2) The assay was run with test compound or vehicle administered to the animals at time zero. Fifty minutes after administration, the animals were tested in the SMA (Spontaneous Locomotor Activity), which was completed in 10 minutes. Immediately following SMA testing, the rats were moved and tested in the EPM (elevated Plus Maze), which was also completed in ten minutes. Test compounds were suspended in an aqueous vehicle (MC) comprised of 0.5% Methylcellulose and administered p.o.
The test apparatus consisted of a plastic cubicle (40.6 cm, length; 40.6 cm, width; 30.5 cm, height) that was placed in the center of a main frame. Photocell sensors (8 beams from front to back and 8 beams from side to side) were built into the sides of the frame for monitoring horizontal movement. The photocells were located at right angles to each other, projecting horizontal infrared beams of light 5 cm apart and 2 cm above the floor to measure horizontal activity, and 5 cm apart and 14 cm above the floor to measure vertical activity. Rats were divided into groups (N=8 to 12). Test compound or vehicle was administered orally by gavage in a dose volume equivalent to 5 mL/kg. At 50 minutes after administration each rat was placed into a separate plastic cubicle and spontaneous exploratory activity was recorded for 10 minutes. Horizontal and vertical movements of the rats were recorded by counting the number of times the beams of light were interrupted (horizontal and vertical counts). Collection of the data and preliminary data analysis was automated. A drug-induced decrease in spontaneous horizontal or vertical motor activity was regarded as an indication of sedation.
HA data were analyzed for statistical significance between drug and vehicle-treated groups that were administered either the vehicle or each dose of the test compound by a one-way analysis of variance. Then Dunnett's multiple comparison method was used to test for a reduction (p<0.05, 1-tailed) in the average number of HA counts or VM counts in drug-treated groups, compared to a concurrently run vehicle-treated group. If the probability was less than 5% (p<0.05) that a decrease in HA and/or VM in the drug-treated group compared to a concurrently run vehicle-treated group was due to chance, then the dose of the test compound was considered to have sedative activity. Mann-Whitney T-Test is used in cases where the distribution of the data is non-gaussian.

rats [4] = assay: Elevated Plus Maze (EPM) Test; type: in vivo; design: key: Active = statistically significant (Mann Whitney U test p < 0.05) increase in open arm time or open arm entries at 10 mg/kg po; conditions: Long-Evans Hooded rats, 10 mg/kg po, one hour after dosing
Experimental: as §1, §2
The elevated plus maze (EPM) is the most widely used animal test of anxiety. The fully quantitative computerized EPM has validity as an anxiety model from the theoretical basis and pharmacological responses. The EPM also has high ecological validity since it studies the spontaneous behavioral patterns in response to interactions with the environment.
The procedure is based on the natural aversion of rodents to explore open and high places, as well as their innate tendency for thigmotaxis. When rats are placed on the elevated-plus maze, they have a normal tendency to remain in the enclosed arms of the maze and avoid venturing into the open arms. Animals treated with typical or atypical anxiolytics show an increase in the percentage of time spent (% Time) and/or the percentage of entries made (% Entries) into the open arms.
The test apparatus used consisted of a black plastic maze with two open arms and two arms with 40 cm high walls (enclosed arms) of equal length (50 cm) extending from the center at right angles, such that arms of similar type were opposite each other. Each plus-maze was elevated approximately 60 cm above the floor. Infrared photo-beams that crossed the entrance of each arm and the center of the maze detected the exploratory activity of an animal in the maze. […]
Anxiolytic activity of a test compound was quantified using two parameters: a) the percent of total time spent by a rat in one of the two open arms of the apparatus (% open arm time) which was calculated as follows: [formula] • and b) the number of times a rat entered the open arms relative to the total entries into all arms and the center area (% open arm entries), calculated as follows: [formula]
Data were analyzed for statistical significance between drug and vehicle-treated groups via one tailed Mann-Whitney T-Test. […]

SMILES | Number of Headshakes, IP Admin [1] | Number of Headshakes, Oral Admin. [1] | Senktide Headshake Assay [2] | cisplatin induced emesis in vivo test (reduction in cisplatin induced retching behavior) (cisplatin induced emesis) | SMA Horizontal Activity (rats [3]) | SMA Vertical Movement (rats [3]) | Increase % Open Arm Entries (rats [4]) | Increase % Open Arm Time (rats [4])
O=C(CN1CCN(C(=O)c2cccc(C#Cc3ccccn3)c2)CC1)Nc1ccccc1 [Compound 106, N-phenyl-4-[3-(2-pyridinylethynyl)benzoyl]-1-piperazineacetamide] | Active | Active |  |  |  |  |  | 
O=C(CN1CCN(C(=O)c2cccc(NCc3cc(C(F)(F)F)cc(C(F)(F)F)c3)c2)CC1)Nc1ccccc1 [Compound 501, 4-[3-[[[3,5-bis(trifluoromethyl)phenyl]methyl]amino]benzoyl]-N-phenyl-1-piperazineacetamide] |  | Inactive |  |  |  |  |  | 
O=C(CC1CCN(C(=O)c2cccc(C#Cc3ccccn3)c2)CC1)Nc1ccccc1 [Compound 10, N-phenyl-1-[3-(2-pyridinylethynyl)benzoyl]4-piperdineacetamide] | Active | Active | Active | active | Increase | Increase | Active | Active
O=C(CC1CCN(C(=O)c2cccc(C#Cc3ccccn3)c2)CC1)Nc1ccc(O)cc1 [Compound 75, N-(4-hydroxyphenyl)-1-[3-(2-pyridinylethynyl)benzoyl]-4-piperidineacetamide] | Active | Active |  |  | Increase | Increase | Active | Active
O=C(CC1CCN(C(=O)c2ccc(/C=C\c3ccncc3)cc2)CC1)Nc1ccccc1 [Compound 73, N-phenyl-1-[4-[(Z)-2-(4-pyridinyl)ethenyl]benzoyl]-4-piperidineacetamide] | Active | Active |  |  |  |  |  | 
